Test results taken from US5736629A, “Herbicide resistant rice” (priority 1997, dated 1998).

Key:
[1] = molecular target: T1, AHAS (acetohydroxyacid synthase) in enzyme extracts from rice line ATCC 75295 (Oryza sativa subsp. japonica, UniProt Q6K2E8); experiment: AHAS enzyme assay, extract from rice line ATCC 75295; format: biochemical
T1 construct: 40.0 grams (fresh weight) of tissue were extracted in the same manner for each of the three varieties; from tissue; host or cells: stem tissue of greenhouse-grown rice seedlings, line ATCC 75295 (leaf blades removed)
T1 sequence (Q6K2E8 40-644 limits assumed): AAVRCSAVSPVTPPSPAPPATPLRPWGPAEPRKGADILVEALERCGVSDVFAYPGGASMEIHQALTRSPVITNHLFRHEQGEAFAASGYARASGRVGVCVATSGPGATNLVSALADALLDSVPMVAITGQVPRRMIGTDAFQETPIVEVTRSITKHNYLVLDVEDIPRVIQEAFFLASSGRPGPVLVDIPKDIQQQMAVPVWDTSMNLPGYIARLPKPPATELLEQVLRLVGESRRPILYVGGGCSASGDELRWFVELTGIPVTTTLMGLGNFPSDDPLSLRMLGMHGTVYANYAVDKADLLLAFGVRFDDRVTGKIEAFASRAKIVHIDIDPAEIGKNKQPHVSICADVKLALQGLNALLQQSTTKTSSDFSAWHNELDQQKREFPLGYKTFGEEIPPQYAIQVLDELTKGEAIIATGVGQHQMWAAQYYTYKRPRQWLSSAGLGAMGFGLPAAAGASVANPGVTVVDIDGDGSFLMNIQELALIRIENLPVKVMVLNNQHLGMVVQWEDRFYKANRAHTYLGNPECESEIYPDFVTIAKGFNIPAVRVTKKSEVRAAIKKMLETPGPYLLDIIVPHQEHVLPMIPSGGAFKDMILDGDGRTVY
Source text: The herbicide resistance of the AHAS enzyme from the ATCC 75295 rice line was compared to the resistance of the AHAS enzymes from the rice varieties "Lemont" and "Mercury," the varieties that were the ancestors of this rice line. The procedures used to assay the activity of acetohydroxyacid synthase were substantially as described in B. K. Singh et al., "Assay of Acetohydroxyacid Synthase," Analytical Biochemistry, vol. 171, pp. 173-179 (1988), except as noted. In the first paragraph of Singh's "Materials and Methods," instead of corn suspension culture cells, stem tissues from greenhouse-grown rice seedlings at the four-leaf stage of development were used. Leaf blades were removed, and 40.0 grams (fresh weight) of tissue were extracted in the same manner for each of the three varieties. […] Pursuit herbicide (imazethapyr) was included in the "standard reaction mixture" for the AHAS assay in the concentrations indicated in Table 1 below. Checks were made of direct acetoin formation during the enzyme assay. Each treatment was conducted with two replicates.

[2] = system: Resistant F3 Hybrid of ATCC 75295 and ATCC 97523; experiment: Greenhouse test of plant vigor after imazethapyr, resistant F3 hybrid; format: in vivo, rice; details: for Rating of rice plant vigor: 36 days after treatment at 2-3 leaf stage, 10-point scale, 0 = dead plant, 10 = no visible injury
Source text: In the greenhouse tests, pots were planted with F3 seed from crosses between the two lines. Each pot was planted with seed from a single panicle from a single plant; each pot was therefore the equivalent of a headrow. A total of 140 pots were planted in this manner, along with 40 pots of various non-resistant genotypes for comparison. Imazethapyr was applied at the 2-3 leaf stage two weeks after planting, at rates equivalent to 0.063 lb. active ingredient (a.i.) per acre, 0.125 lb. a.i./acre, and 0.313 lb. a.i./acre.
Because the material being tested was an F3 population, with genes still segregating, individual plants had different levels of resistance. At the time this patent application is being filed, there had not been sufficient time to raise rice lines that were demonstrably homozygous for both resistance mechanisms. Raising such demonstrably homozygous lines will be routine for one of ordinary skill in the art, but will require additional time.
Table 2 summarizes measurements taken 36 days after spraying rice at the 2-3 leaf stage of development.

[3] = system: resistant progeny row (rice line ATCC 75295); experiment: Open-field spray screen of anther-culture progeny rows, resistant row; format: in vivo
Protocol: This resistant line was derived by conducting anther culture on the F2 progeny of a backcross made by pollinating a rice plant of the variety "Lemont" with pollen from the rice variety "Mercury," followed by a backcross using pollen from this hybrid to pollinate a plant of the variety "Mercury." The resulting backcross is described as Mercury//Lemont/Mercury. Anthers collected from a plant resulting from this backcross were plated on callus induction medium, and the resulting calli were transferred to plant regeneration media. The procedures used were generally as described in Croughan and Chu, "Rice (Oryza saliva L.): Establishment of Callus Cultures and the Regeneration of Plants" in Bajaj (Ed.), "Biotechnology in Agriculture and Forestry," pp. 19-37 (1991). Several regenerated plants were produced and grown to maturity in a greenhouse to produce seed. Progeny seed were planted in an open field, and herbicide applications were made using a garden tractor-mounted spray rig.
A set of 4,193 progeny rows derived from this anther culture procedure were planted in an open field, and were sprayed with 4 ounces per acre of Pursuit (1.00 ounce active ingredient imazethapyr per acre) at the four-leaf stage of seedling development. […]

How did the activity at 0.1 µM ([1]; imazethapyr 0.1 μM) turn out when CCc1cnc(C2=NC(C)(C(C)C)C(=O)N2)c(C(=O)O)c1 (racemic) [imazethapyr, (±)-2-[4,5-dihydro-4-methyl-4-(1-methylethyl)-5-oxo-1H-imidazol-2-yl]-5-ethyl-3-pyridinecarboxylic acid] was run?
Its activity at 0.1 µM is 102%.

What about the activity at 1 µM ([1]; imazethapyr 1 μM) of the same compound?
Its activity at 1 µM is 89%.

What about the activity at 10 µM ([1]; imazethapyr 10 μM) of the same compound?
Its activity at 10 µM is 61%.

And the activity at 100 µM ([1]; imazethapyr 100 μM)?
The activity at 100 µM was 48%.

What about the “Rating of rice plant vigor” value ([2]; 0.063 lb. a.i./acre) of the same compound?
Its value is 10.

What about the “Rating of rice plant vigor” value ([2]; 0.125 lb. a.i./acre) of the same compound?
Its value is 10.

And the “Rating of rice plant vigor” value ([2]; 0.313 lb. a.i./acre)?
Its value is 10.

And the “Tolerance (in words)” value ([2]; F3 plants that inherited both resistance mechanisms, up to 0.313 lb. a.i. per acre)?
The value was “tolerance to all levels of herbicide tested”.

What about the “Visible injury (in words)” value ([2]; plants with both resistance mechanisms, 0.313 pounds active ingredient per acre, 36 days after treatment) of the same compound?
Its value is “no visible injury”.

And the “Time to visible resumption of growth after herbicide application” value ([2]; resistant F3 plants, greenhouse test)?
The value was “about a week”.

And the “Symptoms (in words)” value ([3]; 4 ounces per acre Pursuit (1.00 ounce a.i. per acre), four-leaf stage, open field)?
Its value is “no apparent symptoms”.

And the “Symptoms (in words)” value ([3]; second spray 8 ounces/acre Pursuit (2.00 ounce a.i. per acre), four weeks after the initial treatment)?
The value was “no apparent symptoms”.
